Reference: patent US4297346A, “Pseudopeptides used as medicaments” (priority 1976, dated 1981)

What was measured:
mouse [1] = assay: Anti-reserpine action (interaction with reserpine); assay type: in vivo
Method: (§1) The different tests which are carried out on mice by the known techniques comprise:
the anti-reserpine action,
(2) Interaction with reserpine

mouse [2] = assay: Jumping effects with L-DOPA in mice which have received d-amphetamine; assay type: in vivo; settings: for jumping effects (in words): counted for 90 minutes, L-DOPA 100 mg/kg intraperitoneally
Method: as §1
the jerking movements with L-DOPA.
(4) Jumping effects with L-DOPA

mouse [3] = assay: Action on the rectal temperature of the mouse (pGlu-His-dopamine); assay type: in vivo
Method: as §1
the action on the rectal temperature of the mouse,
(1) Action on the rectal temperature

mouse [4] = assay: Potentialisation of the group toxicity to amphetamine; assay type: in vivo
Method: as §1
the potentialisation of the group toxicity to amphetamine,
(3) Group toxicity in respect of amphetamine

mouse [5] = assay: Study of the toxicity in the mouse; assay type: in vivo
Method: study of the toxicity in the mouse.
(§2) A comparison of these three substances, pGlu-Amph, pGlu-His-Amph and pGlu-His-Pro-Amph, with amphetamine, has been able to be carried out as follows; for this purpose, the products were administered systematically by intraperitoneal route and by oral route, it being possible for this latter procedure to verify the generally admitted assertion of a gastric hydrolysis of peptides; in this case, the action of the amphetamine should be integrally re-established.

[6] = in vivo
[7] = Potentialisation of the toxicity of amphetamine by TRH; assay type: in vivo
serotonin = settings: 4-nitro-amphetamine: in 4 hours, still perceptive two weeks later; cited from earlier work
tryptophane hydroxylase = settings: 4-nitro-amphetamine: in 4 hours, still perceptive two weeks later; cited from earlier work
rat = assay: Induction of stereotype movements in the rat; assay type: in vivo
Method: induction of stereotypes in the rat,
as §2
B--Induction of stereotype movements

mouse [8] = assay: Action on the rectal temperature in the mouse (amphetamic pseudopeptides); assay type: in vivo; settings: for dose causing a hypothermia 30 minutes after injection: small doses
Method: action on the rectal temperature in the mouse.
as §2
A--Action on the rectal temperature in respect of the mouse

[9] = intraperitoneal route, 400 mg/kg
[10] = intraperitoneal route, 600 mg/kg

N[C@@H](Cc1ccc(O)c(O)c1)C(=O)O [L-DOPA]
action on the effects of reserpine (temperature, ptosis) (mouse [1]; 400 mg/kg intraperitoneally): antagonises the effects of the reserpine on the temperature and the dropping of the eyelids | action on the effects of reserpine (mouse [1]; oral administration, same dosage (400 mg/kg)): not found | jumping effects (in words) (mouse [2]): numerous jumping actions | action on the rectal temperature (in words) (mouse [3]): hypothermia | behavioural effect in amphetamine group toxicity test (in words) (mouse [4]): extreme agitation

CC(Cc1ccccc1)NC(=O)[C@@H]1CCCN1C(=O)[C@H](Cc1c[nH]cn1)NC(=O)[C@@H]1CCC(=O)N1 (stereo partly drawn) [pGlu-His-Pro-Amph, pGlu--His--Pro--Amph]
mortality (mouse [5]; oral route, 1000 mg/kg): 25% | time to death (mouse [5]; oral route, 1000 mg/kg): 48 h

pGlu--His--DA [pGlu-His-dopamine]
time of onset of the antioxotremorine action [6]: 15 min | action on the effects of reserpine (temperature, ptosis) (mouse [1]; 400 mg/kg intraperitoneally): slightly counteracts simultaneously the ptosis and the fall in temperature | duration of the anti-reserpine action (mouse [1]; 400 mg/kg intraperitoneally): less than 11/2 | delay in the occurrence of the jumping effects versus L-DOPA (mouse [2]): greater | total number of jumps recorded versus L-DOPA (mouse [2]): smaller than that with L-DOPA | jumping effects (in words) (mouse [2]): the same as with L-DOPA | action on the rectal temperature (in words) (mouse [3]): highly significant hypothermia | time of occurrence of the hypothermia (mouse [3]; relatively high dosage): 15 min | behavioural effect in amphetamine group toxicity test (in words) (mouse [4]): identical with those of dopamine

NC(=O)[C@@H]1CCCN1C(=O)[C@H](Cc1cnc[nH]1)NC(=O)[C@@H]1CCC(=O)N1 [TRH, pGlu-His-Pro-NH2]
effect on the toxicity of amphetamine ([7]; 25 mg/kg, subcutaneous application): potentialises the toxicity of the amphetamine

CC(N)Cc1ccc([N+](=O)[O-])cc1 (centres unmarked) [4-nitro-amphetamine, p-nitro-amphetamine]
effect on the amount of serotonin (serotonin): depletion of serotonin | effect on the activity of the tryptophane hydroxylase (tryptophane hydroxylase): decrease in the activity of the tryptophane hydroxylase

CC(N)Cc1ccccc1 (centres unmarked) [amphetamine, reference compound]
signs observed with toxic dosages (mouse [5]; intraperitoneal route): general syndrome of excitation | LD50 of amphetamine ([7]; amphetamine alone): 17.8 mg/kg | LD50 of amphetamine ([7]; with TRH at 25 mg/kg by subcutaneous application): 5.7 mg/kg | dosage at which the maximum amplitude of stereotype movements is achieved (rat; intraperitoneal route): 10 mg/kg | induction of stereotype movements (in words) (rat; intraperitoneal route): causes stereotype movements | duration of the stereotype movements (rat; intraperitoneal route, 10 mg/kg): ≤ 5 h | induction of stereotype movements (in words) (rat; oral route): less significant intensity and of slightly longer duration than by the intraperitoneal route | dose from which a hyperthermia appears (mouse [8]; intraperitoneal route): ≥ 4 mg/kg | time after which the temperature of the treated animals is again that of the controls (mouse [8]; intraperitoneal route): 2 h | time of the maximum of the hyperthermia (mouse [8]; intraperitoneal route): 30 min | dose causing a hypothermia 30 minutes after injection (mouse [8]; intraperitoneal route): 1 mg/kg | action on the rectal temperature (in words) (mouse [8]; oral route): substantially the same as when applied intraperitoneally | dose still causing a hypothermia (mouse [8]; oral route): 4 mg/kg

NCCc1ccc(O)c(O)c1 [Dopamine, dopamine]
effect on the reserpine fall in temperature (mouse [1]): small effect | effect on reserpine ptosis (mouse [1]; effect not lasting): completely counteracts ptosis | jumping effects (in words) (mouse [2]): no jumping effects are produced | action on the rectal temperature (in words) (mouse [3]): hypothermal action, but the amplitude thereof is much smaller | time after the injection of amphetamine at which the effect is developed (mouse [4]): about 20 minutes

pGlu--His--Amph [pGlu-His-Amph]
toxicity versus amphetamine (summary) (mouse [5]; in vivo): less than that of amphetamine | mortality (mouse [5]; [9]): 10% | time after which agitation is established (mouse [5]; [9]): 30 min | dead mice (mouse [5]; [10]): 6 mice out of 10 | time to death (mouse [5]; [10]): less than 30 minutes | time to death (mouse [5]; intraperitoneal route, 800 mg/kg): less than 3 min | duration of stereotypic movements observed in the toxicity study (mouse [5]; oral route): more than 24 hours | mice dead (mouse [5]; oral route, 2400 mg/kg): 50% | immediate death (mouse [5]; oral route, even with 2400 mg/kg): no longer observed | duration of action in the stereotyped movements test versus amphetamine (summary) (rat; in vivo): much longer lasting action | dosage of contained amphetamine versus dosage of amphetamine causing an equal intensity of stereotypes (rat; intraperitoneal route): three times greater | induction of stereotype movements (in words) (rat; intraperitoneal route): also causes stereotypes | duration of the stereotype movements (rat; intraperitoneal route, strongest dosage): exceeds 7 hours | duration of the stereotyped movements (rat; oral route): 271/2 | induction of stereotype movements (in words) (rat; oral route): much greater effect as regards intensity and duration than when applied intraperitoneally | time the action takes to appear (rat; oral route): about 3 hours | time of the maximum of the hypothermia (mouse [8]; intraperitoneal administration): 1 h | action on the rectal temperature (in words) (mouse [8]; intraperitoneal route): always produces a hypothermia | dose from which a hyperthermia appears (mouse [8]; intraperitoneal route): above 50 mg/kg | time of the maximum of the hyperthermia (mouse [8]; intraperitoneal route): approximately 3 hours | action on the rectal temperature (in words) (mouse [8]; oral route): always causes a hypothermia followed by a hyperthermia proportional to the administered dose | time of the maximum of the hypothermia (mouse [8]; oral route): 2 h

CC(N)Cc1ccc(N)cc1 (centres unmarked) [4-amino-amphetamine, p-amino-amphetamine]
effect on the amount of serotonin (serotonin): increase in the amount of serotonin | effect on the activity of the tryptophane hydroxylase (tryptophane hydroxylase): not modified to any appreciable degree

CC(Cc1ccccc1)NC(=O)C1CCC(=O)N1 (centres unmarked) [pGlu-Amph, pGlu--Amph]
dosage causing mortality of 50% (LD50) (mouse [5]; intraperitoneal route): about 40 mg/kg | signs observed with toxic dosages (mouse [5]; intraperitoneal route): general syndrome of excitation | mortality (in words) (mouse [5]; oral route, 30 mg/kg): does not cause any death | mortality (mouse [5]; oral route, 100 mg/kg): 100% | induction of stereotype movements (in words) (rat; intraperitoneal route): completely identical with that of amphetamine | effect versus that produced by the equivalent amphetamine dose (rat; intraperitoneal route, dose transformed into contained amphetamine): almost identical or is slightly smaller | doses versus doses of amphetamine producing a similar/equivalent effect (rat; oral route): practically equivalent | action on the rectal temperature (in words) (mouse [8]; intraperitoneal route): very close to that of amphetamine | dose from which a hyperthermia appears (mouse [8]; intraperitoneal route): ≥ 10 mg/kg | period of the action compared with amphetamine (mouse [8]; intraperitoneal route): the same | time of the maximum of the hyperthermia (mouse [8]; intraperitoneal route): 60 min | dose causing a hypothermia 30 minutes after injection (mouse [8]; intraperitoneal route): 5 mg/kg | action on the rectal temperature (in words) (mouse [8]; oral route): modelled on that of the amphetamine
